Test results: the supplement of paper PMC8671470

Assays:
Conditions in all cases: 72 h
Mono-Mac-6 = assay: cell viability (% survival relative to DMSO control); higher = less cytotoxic
Protocol: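 8x8 drug-combination matrices (0–5000 nM; rosiglitazone and lestaurtinib 0–1000 nM) were run in Mono-Mac-6 cells for 72 h with CellTiter-Glo read-out. Survival is normalised to DMSO and 10 µM bortezomib and clipped at 100%.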

[1] = tested on: myeloid leukemia patient primary cells Pat.14; assay: area under dose-response curve (viability, 1 nM-10 uM) (fraction (0-1)); higher = more sensitive
Protocol: (§1)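 AUC (0–1, higher = more sensitive) of the 5-point dose–response (1 nM–10 µM, 72 h, CellTiter-Glo) in primary AML/CML patient mononuclear cells. 0.030103 is the floor for inactive compounds.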

[2] = tested on: myeloid leukemia patient primary cells Pat.13; assay: as above
Protocol: as §1

[3] = tested on: myeloid leukemia patient primary cells Pat.11; assay: as above
Protocol: as §1

[4] = tested on: myeloid leukemia patient primary cells Pat.7; assay: as above
Protocol: as §1

[5] = tested on: myeloid leukemia patient primary cells Pat.15; assay: as above
Protocol: as §1

[6] = tested on: myeloid leukemia patient primary cells Pat.1; assay: as above
Protocol: as §1

[7] = tested on: myeloid leukemia patient primary cells Pat.6; assay: as above
Protocol: as §1

[8] = tested on: myeloid leukemia patient primary cells Pat.2; assay: as above
Protocol: as §1

[9] = tested on: myeloid leukemia patient primary cells Pat.12; assay: as above
Protocol: as §1

[10] = tested on: myeloid leukemia patient primary cells Pat.8; assay: as above
Protocol: as §1

[11] = tested on: myeloid leukemia patient primary cells Pat.3; assay: as above
Protocol: as §1

[12] = tested on: myeloid leukemia patient primary cells Pat.5; assay: as above
Protocol: as §1

[13] = tested on: myeloid leukemia patient primary cells Pat.10; assay: as above
Protocol: as §1

[14] = tested on: myeloid leukemia patient primary cells Pat.4; assay: as above
Protocol: as §1

[15] = tested on: myeloid leukemia patient primary cells Pat.9; assay: as above
Protocol: as §1

CN(CCOc1ccc(Cc2sc(O)nc2O)cc1)c1ccccn1 [Rosiglitazone] + c1cc(-c2cnn3cc(-c4ccc(OCCN5CCCCC5)cc4)cnc23)ccn1 [Dorsomorphin]
cell viability [%], Mono-Mac-6
Conditions	drug1 concentration 1 nM	drug1 concentration 5 nM	drug1 concentration 10 nM	drug1 concentration 50 nM	drug1 concentration 100 nM	drug1 concentration 500 nM	drug1 concentration 1000 nM
drug2 concentration 5 nM	> 100	> 100	93	> 100	89	49.2	33.8
drug2 concentration 10 nM	> 100	85.1	84.3	84.5	76	36.1	32.6
drug2 concentration 50 nM	87.3	81.8	78.8	94.7	85.6	47.2	33.5
drug2 concentration 100 nM	68.8	> 100	84.1	74.5	81.5	28.7	31.1
drug2 concentration 500 nM	78.1	59.9	54.8	60.7	53.5	22.8	6.36
drug2 concentration 1000 nM	42.4	38.6	35.9	47.5	37.7	11.6	9.67
drug2 concentration 5000 nM	6.04	9.54	9.61	9.94	12.2	5.66	12.4

CC(C)(C)c1ccc(S(=O)(=O)NCc2ccc(C(=O)Nc3cccnc3)cc2)cc1 [STF-31]
Conditions	area under dose-response curve
[1]	0.653
[2]	0.358
[3]	0.368
[4]	0.66
[5]	0.375
[6]	0.267
[7]	0.357
[8]	0.367
[9]	0.366
[10]	0.433
[11]	0.745
[12]	0.896
[13]	0.449
[14]	0.567
[15]	0.8

O=C(O)CC[N+](=O)[O-] [3-nitropropionic acid]
Conditions	area under dose-response curve
[1]	0.112
[2]	0.0548
[3]	< 0.0301
[4]	0.058
[5]	0.123
[6]	0.0529
[7]	0.0437
[9]	0.0457
[10]	< 0.0301
[11]	0.133
[12]	0.168
[13]	0.0892
[14]	0.113
[15]	0.148

CN(CCOc1ccc(Cc2sc(O)nc2O)cc1)c1ccccn1 [Rosiglitazone]
Conditions	area under dose-response curve
[1]	< 0.0301
[2]	< 0.0301
[3]	< 0.0301
[4]	< 0.0301
[6]	< 0.0301
[7]	< 0.0301
[8]	< 0.0301
[9]	< 0.0301
[10]	< 0.0301
[11]	0.0764
[12]	0.0995
[13]	0.0632
[14]	< 0.0301
[15]	0.139

CO[C@H]1C[C@@H]2CC[C@@H](C)[C@@](O)(O2)C(=O)C(=O)N2CCCC[C@H]2C(=O)O[C@H]([C@H](C)C[C@@H]2CC[C@@H](OCCO)[C@H](OC)C2)CC(=O)[C@H](C)/C=C(\C)[C@@H](O)[C@@H](OC)C(=O)[C@H](C)C[C@H](C)/C=C/C=C/C=C/1C [Everolimus]
Conditions	area under dose-response curve
[1]	0.177
[2]	0.0367
[3]	< 0.0301
[4]	0.139
[5]	0.625
[6]	0.122
[7]	0.0682
[8]	0.0353
[9]	< 0.0301
[10]	< 0.0301
[11]	0.746
[12]	0.808
[13]	0.604
[14]	0.413
[15]	0.319

CCn1c(=Cc2cccc[n+]2CC)sc(=C2Sc3ccccc3N2C)c1=O [MKT 077] + CN(C)CCNC(=O)c1cccn2c(=O)c3cc4ccccc4cc3nc12 [Bmh-21]
cell viability [%], Mono-Mac-6
Conditions	drug1 concentration 5 nM	drug1 concentration 10 nM	drug1 concentration 50 nM	drug1 concentration 100 nM	drug1 concentration 500 nM	drug1 concentration 1000 nM	drug1 concentration 5000 nM
drug2 concentration 5 nM	93.5	> 100	99.6	94.6	99.8	> 100	> 100
drug2 concentration 10 nM	> 100	> 100	> 100	90.1	> 100	78.2	> 100
drug2 concentration 50 nM	95.8	86.2	82.7	> 100	87.1	> 100	99
drug2 concentration 100 nM	91.6	> 100	> 100	99.7	> 100	> 100	> 100
drug2 concentration 500 nM	90.4	93.3	82.1	87.7	84.3	62.8	73.5
drug2 concentration 1000 nM	76.7	77.5	> 100	72.8	76.2	74.1	56.9
drug2 concentration 5000 nM	46	58.2	59.9	64.1	65.1	58.6	24.6

Cc1c2c(=O)n(-c3ccccc3Cl)[nH]c2cc(=O)n1Cc1ccccn1
Conditions	area under dose-response curve
[1]	< 0.0301
[2]	< 0.0301
[3]	< 0.0301
[4]	< 0.0301
[5]	< 0.0301
[6]	< 0.0301
[7]	< 0.0301
[8]	< 0.0301
[9]	< 0.0301
[10]	< 0.0301
[11]	< 0.0301
[13]	0.0358
[14]	< 0.0301
[15]	< 0.0301

CO[C@H]1C[C@@H]2CC[C@@H](C)[C@@](O)(O2)C(=O)C(=O)N2CCCC[C@H]2C(=O)O[C@H]([C@H](C)C[C@@H]2CC[C@@H](OC(=O)C(C)(CO)CO)[C@H](OC)C2)CC(=O)[C@H](C)/C=C(\C)[C@@H](O)[C@@H](OC)C(=O)[C@H](C)C[C@H](C)/C=C/C=C/C=C/1C [Temsirolimus]
Conditions	area under dose-response curve
[1]	0.142
[2]	< 0.0301
[3]	< 0.0301
[4]	0.146
[5]	0.584
[6]	0.0628
[7]	< 0.0301
[8]	< 0.0301
[9]	< 0.0301
[10]	< 0.0301
[11]	0.123
[12]	0.798
[13]	0.123
[14]	0.206
[15]	0.608

Cc1cc2c(C(C)C)c(O)c(O)c(C=O)c2c(O)c1-c1c(C)cc2c(C(C)C)c(O)c(O)c(C=O)c2c1O [Gossypol]
Conditions	area under dose-response curve
[1]	0.386
[2]	0.107
[3]	0.135
[4]	0.476
[5]	0.0654
[6]	0.135
[7]	0.0898
[8]	0.112
[9]	0.0353
[10]	0.123
[11]	0.428
[12]	0.712
[13]	0.641
[14]	0.117
[15]	0.803

CN1CCN(CCCN2c3ccccc3Sc3ccc(C(F)(F)F)cc32)CC1 [Trifluoperazine]
Conditions	area under dose-response curve
[1]	0.294
[2]	0.182
[3]	0.174
[4]	0.517
[5]	0.102
[6]	0.209
[7]	0.187
[8]	0.108
[9]	0.0812
[10]	0.106
[11]	0.429
[12]	0.36
[13]	0.362
[14]	0.162
[15]	0.423

Cn1cc(-c2ccncc2)c(-c2ccc(OCc3ccc4ccccc4n3)cc2)n1
Conditions	area under dose-response curve
[1]	0.183
[2]	0.067
[3]	< 0.0301
[4]	0.309
[5]	< 0.0301
[6]	< 0.0301
[8]	< 0.0301
[9]	< 0.0301
[10]	< 0.0301
[11]	0.219
[12]	0.938
[13]	0.163
[14]	< 0.0301
[15]	0.694
